From patent publication US6737383B1, “Herbicidal oxadiazolidines” (priority 1999, dated 2004)

Experiments:
blackgrass = test: Test B pre/postemergence blackgrass; format: in vivo, Alopecurus myosuroides
How it was run: (§1)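 Test chemicals in a non-phytotoxic solvent mixture with surfactant were sprayed preemergence onto planted seeds and postemergence onto plants 2 to 18 cm tall (1- to 4-leaf stage). After twelve to sixteen days in a greenhouse, injury was visually rated against untreated controls from 0 (no effect) to 10 (complete control).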

surinam grass = test: Test B pre/postemergence surinam grass; format: in vivo, Brachiaria decumbens
How it was run: as §1

cocklebur = test: Test B pre/postemergence cocklebur; format: in vivo, Xanthium strumarium
How it was run: as §1

corn = test: Test B pre/postemergence corn; format: in vivo, Zea mays
How it was run: as §1

crabgrass = test: Test B pre/postemergence crabgrass; format: in vivo, Digitaria sanguinalis
How it was run: as §1

giant foxtail = test: Test B pre/postemergence giant foxtail; format: in vivo, Setaria faberii
How it was run: as §1

morningglory = test: Test B pre/postemergence morningglory; format: in vivo, Ipomoea hederacea
How it was run: as §1

pigweed = test: Test B pre/postemergence pigweed; format: in vivo, Amaranthus retroflexus; conditions: for Plant response rating, Redroot pigweed: Postemergence
How it was run: as §1

rape = test: Test B pre/postemergence rape; format: in vivo, Brassica napus
How it was run: as §1

sugar beet = test: Test B pre/postemergence sugar beet; format: in vivo, Beta vulgaris; conditions: for Plant response rating, Sugarbeets: Postemergence
How it was run: as §1

velvetleaf = test: Test B pre/postemergence velvetleaf; format: in vivo, Abutilon theophrasti; conditions: for Plant response rating, Velvetleaf: Postemergence
How it was run: as §1

wheat = test: Test B pre/postemergence wheat; format: in vivo, Triticum aestivum; conditions: for Plant response rating, Wheat: Postemergence
How it was run: as §1

purple nutsedge = test: Test B pre/postemergence purple nutsedge; format: in vivo, Cyperus rotundus
How it was run: as §1

rice = test: Test B flood test rice; format: in vivo, Oryza sativa
How it was run: (§2)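 Flood test on plants grown to the 2-leaf stage; treated plants kept in greenhouse twelve to sixteen days, then visually rated against controls on a 0 (no effect) to 10 (complete control) scale.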

smallflower flatsedge = test: Test B flood test smallflower flatsedge; format: in vivo, Cyperus difformis
How it was run: as §2

duck salad = test: Test B flood test duck salad; format: in vivo, Heteranthera limosa
How it was run: as §2

[1] = Postemergence, Rate 62 g/ha, scale of 0 to 10, 0 is no effect, 10 is complete control
[2] = Postemergence, Rate 125 g/ha, scale 0 to 10, 0 is no effect, 10 is complete control
[3] = Postemergence, Rate 500 g/ha, scale of 0 to 10 where 0 is no effect and 10 is complete control
[4] = Preemergence, Rate 62 g/ha, scale 0 to 10 (0 no effect, 10 complete control)
[5] = Preemergence, Rate 125 g/ha, scale 0 to 10, 0 is no effect, 10 is complete control
[6] = Preemergence, Rate 500 g/ha, scale of 0 to 10 where 0 is no effect and 10 is complete control
[7] = Rate 250 g/ha, Postemergence, scale of 0 to 10 where 0 is no effect and 10 is complete control
[8] = Rate 500 g/ha, scale of 0 to 10 where 0 is no effect and 10 is complete control
[9] = Rate 250 g/ha, scale of 0 to 10 where 0 is no effect and 10 is complete control
[10] = Rate 62 g/ha, flood test species, Pre-emergence, visual evaluation after twelve to sixteen days
[11] = Rate 125 g/ha, under heading Pre-emergence, flood test species, visual evaluation after twelve to sixteen days
[12] = Rate 250 g/ha, Pre-emergence (flood test species), scale 0 to 10, 0 is no effect, 10 is complete control
[13] = Rate 500 g/ha, Pre-emergence section of Table B, 0 to 10 scale (0 no effect, 10 complete control)

CC(C)N(C(=O)n1oc(=O)n(CCc2ccccc2)c1=O)c1ccccc1 [Compound 567]
Blackgrass plant response rating (blackgrass; [1]): 0 | Blackgrass plant response rating (blackgrass; [2]): 0 | Plant response rating, Blackgrass (blackgrass; [3]): 0 | Blackgrass plant response rating (blackgrass; [4]): 0 | Blackgrass plant response rating (blackgrass; [5]): 0 | Blackgrass plant response rating (0 to 10 scale) (blackgrass; Preemergence, Rate 250 g/ha): 0 | Blackgrass plant response rating (blackgrass; [6]): 7 | Plant response rating, Blackgrass (blackgrass; [7]): 0 | B. signalgrass plant response rating (surinam grass; [1]): 0 | B. signalgrass plant response rating (surinam grass; [2]): 0 | Plant response rating, B. signalgrass (surinam grass; [3]): 0 | B. signalgrass plant response rating (surinam grass; [4]): 0 | B. signalgrass plant response rating (surinam grass; [5]): 0 | B. signalgrass plant response rating (0 to 10 scale, 0 is no effect, 10 is complete control) (surinam grass; Preemergence, Rate 250 g/ha): 2 | B. signalgrass plant response rating (surinam grass; [6]): 9 | Plant response rating, B. signalgrass (surinam grass; [7]): 0 | Cocklebur plant response rating (cocklebur; [1]): 0 | Cocklebur plant response rating (cocklebur; [2]): 0 | Plant response rating, Cocklebur (cocklebur; [3]): 2 | Cocklebur plant response rating (cocklebur; [4]): 0 | Cocklebur plant response rating (cocklebur; [5]): 0 | Cocklebur plant response rating (0 to 10 scale) (cocklebur; Preemergence, Rate 250 g/ha): 0 | Cocklebur plant response rating (cocklebur; [6]): 0 | Plant response rating, Cocklebur (cocklebur; [7]): 0 | Corn plant response rating (corn; [1]): 0 | Corn plant response rating (corn; [2]): 0 | Plant response rating, Corn (corn; [3]): 0 | Corn plant response rating (corn; [4]): 0 | Corn plant response rating (corn; [5]): 0 | Corn plant response rating (0 to 10 scale) (corn; Preemergence, Rate 250 g/ha): 0 | Corn plant response rating (corn; [6]): 5 | Plant response rating, Corn (corn; [7]): 0 | Crabgrass plant response rating (crabgrass; [1]): 3 | Crabgrass plant response rating (crabgrass; [2]): 7 | Plant response rating, Crabgrass (crabgrass; [3]): 8 | Crabgrass plant response rating (crabgrass; [4]): 0 | Crabgrass plant response rating (crabgrass; [5]): 9 | Crabgrass plant response rating (0 to 10 scale) (crabgrass; Preemergence, Rate 250 g/ha): 9 | Crabgrass plant response rating (crabgrass; [6]): 9 | Plant response rating, Crabgrass (crabgrass; [7]): 7 | Giant foxtail plant response rating (giant foxtail; [1]): 0 | Giant foxtail plant response rating (giant foxtail; [2]): 0 | Plant response rating, Giant foxtail (giant foxtail; [3]): 0 | Giant foxtail plant response rating (giant foxtail; [4]): 3 | Giant foxtail plant response rating (giant foxtail; [5]): 9 | Giant foxtail plant response rating (0 to 10 scale) (giant foxtail; Preemergence, Rate 250 g/ha): 10 | Giant foxtail plant response rating (giant foxtail; [6]): 9 | Plant response rating, Giant foxtail (giant foxtail; [7]): 0 | Morningglory plant response rating (morningglory; [1]): 0 | Morningglory plant response rating (morningglory; [2]): 4 | Plant response rating, Morningglory (morningglory; [3]): 10 | Morningglory plant response rating (morningglory; [4]): 0 | Morningglory plant response rating (morningglory; [5]): 0 | Morningglory plant response rating (0 to 10 scale) (morningglory; Preemergence, Rate 250 g/ha): 0 | Morningglory plant response rating (morningglory; [6]): 0 | Plant response rating, Morningglory (morningglory; [7]): 4 | Plant response rating, Redroot pigweed (pigweed; [8]): 0 | Redroot pigweed plant response rating (pigweed; [4]): 0 | Redroot pigweed plant response rating (pigweed; [5]): 0 | Redroot pigweed plant response rating (0 to 10 scale) (pigweed; Preemergence, Rate 250 g/ha): 8 | Redroot pigweed plant response rating (pigweed; [6]): 9 | Plant response rating, Redroot pigweed (pigweed; [9]): 0 | Rape plant response rating (rape; [1]): 0 | Rape plant response rating (rape; [2]): 0 | Plant response rating, Rape (rape; [3]): 0 | Rape plant response rating (rape; [4]): 0 | Rape plant response rating (rape; [5]): 0 | Rape plant response rating (0 to 10 scale) (rape; Preemergence, Rate 250 g/ha): 0 | Rape plant response rating (rape; [6]): 0 | Plant response rating, Rape (rape; [7]): 0 | Plant response rating, Sugarbeets (sugar beet; [8]): 0 | Sugarbeets plant response rating (sugar beet; [4]): 0 | Sugarbeets plant response rating (sugar beet; [5]): 0 | Sugarbeets plant response rating (0 to 10 scale) (sugar beet; Preemergence, Rate 250 g/ha): 0 | Sugarbeets plant response rating (sugar beet; [6]): 2 | Plant response rating, Sugarbeets (sugar beet; [9]): 0 | Plant response rating, Velvetleaf (velvetleaf; [8]): 2 | Velvetleaf plant response rating (velvetleaf; [4]): 0 | Velvetleaf plant response rating (velvetleaf; [5]): 0 | Velvetleaf plant response rating (0 to 10 scale) (velvetleaf; Preemergence, Rate 250 g/ha): 0 | Velvetleaf plant response rating (velvetleaf; [6]): 0 | Plant response rating, Velvetleaf (velvetleaf; [9]): 0 | Plant response rating, Wheat (wheat; [8]): 0 | Wheat plant response rating (wheat; [4]): 0 | Wheat plant response rating (wheat; [5]): 0 | Wheat plant response rating (0 to 10 scale) (wheat; Preemergence, Rate 250 g/ha): 0 | Wheat plant response rating (wheat; [6]): 0 | Plant response rating, Wheat (wheat; [9]): 0 | Nutsedge plant response rating (purple nutsedge; [1]): 4 | Plant response rating, Nutsedge (purple nutsedge; [3]): 0 | Nutsedge plant response rating (purple nutsedge; [4]): 0 | Nutsedge plant response rating (purple nutsedge; [5]): 0 | Nutsedge plant response rating (0 to 10 scale) (purple nutsedge; Preemergence, Rate 250 g/ha): 0 | Nutsedge plant response rating (purple nutsedge; [6]): 0 | Plant response rating, Rice (0 to 10 scale, 0 is no effect, 10 is complete control) (rice; [10]): 0 | Rice plant response rating (0 to 10 scale, 0 is no effect, 10 is complete control) (rice; [11]): 0 | Rice plant response rating (rice; [12]): 0 | Rice plant response rating (rice; [13]): 0 | Plant response rating, S. Flatsedge (0 to 10 scale, 0 is no effect, 10 is complete control) (smallflower flatsedge; [10]): 0 | S. Flatsedge plant response rating (0 to 10 scale, 0 is no effect, 10 is complete control) (smallflower flatsedge; [11]): 0 | S. Flatsedge plant response rating (smallflower flatsedge; [12]): 0 | S. Flatsedge plant response rating (smallflower flatsedge; [13]): 0 | Plant response rating, Ducksalad (0 to 10 scale, 0 is no effect, 10 is complete control) (duck salad; [10]): 0 | Ducksalad plant response rating (0 to 10 scale, 0 is no effect, 10 is complete control) (duck salad; [11]): 0 | Ducksalad plant response rating (duck salad; [12]): 0 | Ducksalad plant response rating (duck salad; [13]): 0
